Reference: patent US10183030B2, “17α,21-diesters of cortexolone for use in the treatment of tumors” (COSMO TECHNOLOGIES LTD., priority 2014, dated 2019)
Where two headings read alike, the source gives them in different places.

Tests used:
[1] = tested on: Panc1 (AR+) pancreatic cancer cells; experiment: ATP-dependent proliferation/viability assay, Panc1; format: cell-based; conditions: Homo sapiens
Protocol: (§1) The experimental method consisted of: • 1. […] After 24 hours, 10 nM DHT (dihydrotestosterone) with or without anti-androgen compounds, or DMSO vehicle (negative control) was added to the cultures. • 3.
(§2) Each compounds was titrated from 3 uM to 200 uM.

[2] = tested on: MiaPaca2 (AR low) pancreatic cancer cells; experiment: ATP-dependent proliferation/viability assay, MiaPaca2; format: cell-based; conditions: Homo sapiens
Protocol: as §1, §2

[3] = tested on: stimulated PBMC (actively dividing cells); experiment: IC50 on stimulated PBMC (intrinsic toxicity); format: cell-based; conditions: Homo sapiens
Protocol: (§4) The IC50 in PBMC were tested in 2 different activation status: • stimulated—actively dividing cells • resting—quiescent, non-dividing cells
(§5) IC50 of the compounds was determined on fresh cells isolated from human blood (PBMC).

[4] = tested on: MCF7 breast cancer cells; experiment: In vitro proliferation / cytotoxic assay, MCF7; format: cell-based; conditions: Homo sapiens
Protocol: After 72 hours incubation cell were harvested, lysed and viability determined using the cell titer glow assay for viability.

[5] = tested on: HT29 colon cancer cells; experiment: In vitro proliferation, HT29 (cancer cell panel); format: cell-based; conditions: Homo sapiens, HT-29, HT29
Protocol: as §2

[6] = tested on: LNCaP (AR+) prostate cancer cells; experiment: ATP-dependent proliferation/viability assay, LNCaP; format: cell-based; conditions: Homo sapiens
Protocol: (§3) The experiment was performed to test and to define the antitumor activity in vitro of cortexolone 17α-benzoate on LNCaP (AR^+) and PC3 (AR^−), representative of Prostatic cancer cell lines with Androgen Receptor (AR) positive or negative expression, respectively. The experimental method consisted of: • 1. […] After 24 hours, 10 nM DHT (dihydrotestosterone) with or without anti-androgen compounds, or DMSO vehicle (negative control) was added to the cultures. • 3.
as §3, with “define” for “define the”, “17α-valerate-21-propionate (CB-03-10)” for “17α-benzoate”, “AR” for “Androgen Receptor (AR)”
as §2

[7] = tested on: PC3 (AR−) prostate cancer cells; experiment: ATP-dependent proliferation/viability assay, PC3; format: cell-based; conditions: Homo sapiens, 72 h, 3 days
Protocol: as §3
as §3, with “define” for “define the”, “17α-valerate-21-propionate (CB-03-10)” for “17α-benzoate”, “AR” for “Androgen Receptor (AR)”
as §2

[8] = tested on: PC3 (AR−) prostate cancer cells; experiment: ATP-dependent proliferation/viability assay, PC3; format: cell-based; conditions: Homo sapiens
[9] = tested on: resting PBMC (quiescent, non-dividing cells); experiment: IC50 on resting PBMC (intrinsic toxicity); format: cell-based; conditions: Homo sapiens
Protocol: as §4, §5

[10] = tested on: Caspase 8, 9 and 3/7 in MiaPaca2 cells; experiment: Caspase activity in MiaPaca2 cells; format: cell-based, human; conditions: 8, 24, 48 hours
Protocol: From previous studies was determined that CB-03-10 induces apoptosis using Annexin V staining in MiaPaca2 cells. To better analyze the phenomenon the enzymatic activity of Caspase 8 (initiator caspase for Extrinsic Pathway) and Caspase 9 (initiator caspase for Intrinsic Pathway) and of Caspases 3 and 7 (effector caspases) were measured.
After 24 hours test compounds were added to cells, Gemcitabine (a known pancreatic cancer chemotherapeutic agent) and DMSO were used as positive and negative control, respectively. After 8, 24, & 48 hours incubation with test compounds, cells were lysed in buffer containing the caspase 3/7 or 8 or 9 substrate and a stable luciferase in proprietary buffers. The lysates were transferred to white opaque plates before measuring luminescence in a Tecan Safire instrument. Parallel plates treated identically, were used to determine viable cells. All caspase activities were corrected for the number of viable cells.

[11] = In vivo pharmacokinetics in mouse plasma; conditions: mouse, in vivo, 40 mg/kg
Protocol: The pharmacokinetic of CB-03-10 was evaluated in plasma of mice after intravenous (IV), subcutaneous (SC) and oral administration (PO).
Mice (3 per group) were administered with the following doses, blood was collected at the indicated times. Plasma samples were analyzed by HPLC-MS/MS.

[12] = tested on: MiaPaca-2 xenograft tumor; experiment: MiaPaca2 human pancreatic tumor xenograft in nude mice, subcutaneous treatment; format: in vivo, mouse
Protocol: The test was carried out comparing the anti-tumor activity of cortexolone 17α-benzoate at two different dosages (8.0 mg/kg, corresponding approximately at 230 μM, and 40 mg/kg, corresponding approximately at 1150 μM), versus the vehicle (i.e. 0.4% (v/v) tween 80 and 0.5% (w/v) carboxymethylcellulose in normal saline) and versus the comparator Cyproterone Acetate at two different dosages (7.4 mg/kg and 37 mg/kg).
1×10^6 MiaPaca-2 cells suspended in matrigel were subcutaneously injected into 6 week old athymic nude mice.
The treatment with the tested compounds, with the vehicle and with the comparative compound, was initiated after the tumor volume has reached 50 mm^3 after transplantation. All compounds were injected 100 μL/mouse subcutaneously of low dose solution (approximately 230 μM) or 100 μL/mouse of high dose solution (approximately 1150 μM) of cortexolone 17α-benzoate, vehicle and cyproterone acetate, respectively. Compounds and controls were administered subcutaneously daily for 28 days.
Tumors were measured every 4 days with a digital caliper.
The results are plotted in FIG. 1 as average change in tumor volume relative to the start of treatment. Tumor volume was calculated according to the formula 0.5236(r1)^2(r2) where r1<r2.
The test was carried out comparing the anti-tumor activity of cortexolone 17α-valerate-21-propionate (CB-03-10) at two different dosages (approximately 8.6 mg/kg and 43 mg/kg) versus the vehicle (i.e. 0.4% (v/v) tween 80 and 0.5% (w/v) carboxymethylcellulose in normal saline) and versus the comparator Cyproterone Acetate at two different dosages (7.4 mg/kg and 37 mg/kg).
The treatment with the tested compound, with the vehicle and with the comparative compound was initiated after the tumor has reached a volume of 50 mm^3 after implantation, injecting subcutaneously 100 μL/mouse of low dose solution (approximately 230 μM) or 100 μL/mouse of high dose solution (approximately 1150 μM) of cortexolone 17α-valerate-21-propionate (CB-03-10), vehicle and cyproterone acetate, respectively. Compounds and controls were administered subcutaneously daily for 28 days.
The results are plotted in FIG. 2 as average change in tumor volume relative to the start of treatment. Tumor volume was calculated according to the formula 0.5236(r1)^2(r2) where r1<r2.
CPA a well-known anti-androgen was used as control. Briefly 1×10^6 MiaPaca2 cells suspended in matrigel were subcutaneously (SC) injected into 6 week old male athymic nude mice. Tumors were measured every 4 days with a digital caliper. Tumor volume was calculated according to the formula: 0.5236(r1) 2(r2) where r1<r2. Treatment with CB-03-10 and controls compounds was initiated after the tumor had reached 50 mm^3. Compounds diluted in DMSO/2-hydroxypropyl b-cyclodextrin (vehicle) were injected subcutaneously (SC) daily (100 μL/mouse) at the concentration of 40 mg/Kg daily for 28 consecutive days.

[13] = PANC-1, 72 h, Panc1, Tables I and II, unit inferred, titrated from 3 uM to 200 uM, 3 days, read-out: IC50
[14] = PANC-1, Panc1, Table IV, read-out: In vitro proliferation IC50 (micro Molar)
[15] = MIA PaCa-2, 72 h, MiaPaca2, Tables I and II, unit inferred, titrated from 3 uM to 200 uM, 3 days, read-out: IC50
[16] = MIA PaCa-2, MiaPaca2, Table IV, read-out: In vitro proliferation IC50 (micro Molar)
[17] = PBMC STIMULATED, Table IV, read-out: In vitro proliferation IC50 (micro Molar)
[18] = MCF7, Table IV, read-out: In vitro proliferation IC50 (micro Molar)
[19] = Table IV, read-out: In vitro proliferation IC50 (micro Molar)
[20] = 72 h, Tables I and II, unit inferred, compounds titrated from 3 uM to 200 uM, 3 days, read-out: IC50
[21] = Tables I and II, unit inferred, titrated from 3 uM to 200 uM
[22] = Table III, read-out: in vitro proliferation IC50 (μ/M)

IC50 [6, 20] [µM]	IC50 [6, 19] [µM]	IC50 [7, 21] [µM]	IC50 [8, 19] [µM]	SMILES	IC50 [1, 13] [µM]	IC50 [1, 14] [µM]	IC50 [2, 15] [µM]	IC50 [2, 16] [µM]	IC50 [3, 17] [µM]	IC50 [4, 18] [µM]	IC50 [5, 19] [µM]	Caspase 3/7 induction [10]	further results
				CCCC(=O)OC1(C(=O)CO)CCC2C3CCC4=CC(=O)CC[C@]4(C)C3=CC[C@@]21C (single isomer, unassigned) [CB-03-04]	340	340	160	160	360	88	51		
33	33	190	190	CCC(=O)O[C@]1(C(=O)CO)CC[C@H]2[C@@H]3CCC4=CC(=O)CC[C@]4(C)[C@H]3CC[C@@]21C [CB-03-01]	490	490	110	110	0.1	121			
				C[C@]12CCC(=O)C=C1CC[C@@H]1[C@@H]2CC[C@@]2(C)[C@H]1CC[C@]2(OC(=O)c1ccccc1)C(=O)CO [CB-03-06, cortexolone 17α-benzoate]									pancreatic tumor size increase relative to the start of treatment ([12]; Examples 5 and 6, SC daily for 28 days, test compounds at high dose (approximately 1150 μM, 100 μL/mouse), Cyproterone Acetate treatment groups 7.4 and 37 mg/kg): less than 5 fold
22	22	90	90	CC(=O)O[C@]1(C(C)=O)CC[C@H]2[C@@H]3C=C(Cl)C4=CC(=O)[C@@H]5C[C@@H]5[C@]4(C)[C@H]3CC[C@@]21C [Cyproterone Acetate, Cyproterone acetate, reference compound]	46	46	39	39	62	64			IC50 ([6]; 72 h, 10 nM DHT, 3 days, Examples 1-2, Experiment 1 (sigmoidal dose response fit), read-out: IC50): 29 µM; IC50 ([6]; 72 h, 10 nM DHT, 3 days, Examples 1-2, Experiment 2 (nonlinear regression least squares fit), read-out: IC50): 22 µM; IC50 ([7]; 10 nM DHT, Examples 1-2, Experiment 1): 98 µM; IC50 ([7]; 10 nM DHT, Examples 1-2, Experiment 2): 90 µM; IC50 ([1]; PANC-1, 72 h, Panc1, 10 nM DHT, 3 days, Examples 3-4, Experiment 1, sigmoidal dose-response curve fit, read-out: IC50): 54 µM; IC50 ([1]; PANC-1, 72 h, Panc1, 10 nM DHT, 3 days, Examples 3-4, Experiment 2, pooled experiments, least-squares fit, read-out: IC50): 46 µM; IC50 ([1]; PANC-1, Panc1, Example 7, Experiment 1, read-out: IC50): 52 µM; IC50 ([1]; PANC-1, Panc1, Example 7, Experiment 2, read-out: IC50): 46 µM; IC50 ([2]; MIA PaCa-2, 72 h, MiaPaca2, 10 nM DHT, 3 days, Examples 3-4, Experiment 1, sigmoidal dose-response curve fit, read-out: IC50): 46 µM; IC50 ([2]; MIA PaCa-2, 72 h, MiaPaca2, 10 nM DHT, 3 days, Examples 3-4, Experiment 2, pooled experiments, least-squares fit, read-out: IC50): 39 µM; IC50 ([2]; MIA PaCa-2, MiaPaca2, Example 7, Experiment 1, read-out: IC50): 39 µM; IC50 ([2]; MIA PaCa-2, MiaPaca2, Example 7, Experiment 2, read-out: IC50): 39 µM; IC50 ([3]; stimulated PBMC, Example 7, Experiment 1, read-out: IC50 (microM) on Stimulated PBMC): 63 µM; IC50 ([3]; stimulated PBMC, Example 7, Experiment 2, read-out: IC50 (microM) on Stimulated PBMC): 62 µM; IC50 ([9]; resting PBMC, Example 7, Experiment 1, read-out: IC50 (microM) on Resting PBMC): 18 µM; IC50 ([9]; resting PBMC, Example 7, Experiment 2, read-out: IC50 (microM) on Resting PBMC): 84 µM; pancreatic tumor size increase relative to the initial size, during the treatment period ([12]; Example 22, 40 mg/Kg SC daily for 28 consecutive days): 12 fold
				Nc1ccn([C@@H]2O[C@H](CO)[C@@H](O)C2(F)F)c(=O)n1 [Gemcitabine, reference compound]								not seen until the 48 hours mark	

SMILES	IC50 [6, 20] [µM]	IC50 [6, 19] [µM]	IC50 [7, 21] [µM]	IC50 [8, 19] [µM]	IC50 [1, 13] [µM]	IC50 [1, 14] [µM]	IC50 [2, 15] [µM]	IC50 [2, 16] [µM]	IC50 [3, 17] [µM]	IC50 [4, 18] [µM]	IC50 [5, 19] [µM]	Caspase 3/7 induction [10]	further results
CCCCC(=O)O[C@]1(C(=O)CO)CC[C@H]2[C@@H]3CCC4=CC(=O)CC[C@]4(C)[C@H]3CC[C@@]21C [CB-03-05, cortexolone 17α-valerate]	32	32	170	170	74	74	59	59	130	50	30	does not show a good profile for caspase activation	IC50 [6, 22]: 32 µM; IC50 ([6]; general conclusion text, read-out: IC50 in LNCaP prostate cancer cells): 32 µM; IC50 ([1]; PANC-1, Panc1, Table III, read-out: in vitro proliferation IC50 (μ/M)): 74 µM; IC50 ([2]; MIA PaCa-2, MiaPaca2, Table III, read-out: in vitro proliferation IC50 (μ/M)): 59 µM; IC50 ([3]; PBMC STIMULATED, Table III, read-out: in vitro proliferation IC50 (μ/M)): 130 µM; IC50 ([9]; PBMC RESTING, Table III, read-out: in vitro proliferation IC50 (μ/M)): 120 µM; IC50 ([4]; MCF7 (ER+PR+GR+/−), 72 hours, Table VI, unit inferred, read-out: IC50 on breast cancer cells): 50 µM; IC50 ([4]; MCF7, Table III, read-out: in vitro proliferation IC50 (μ/M)): 50 µM; IC50 ([5]; Table III, read-out: in vitro proliferation IC50 (μ/M) (converted)): 30 µM; body exposure (metabolite after CB-03-10 dosing) ([11]; po): 47 h/ng/mL; body exposure (metabolite after CB-03-10 dosing) ([11]; sc): 189 h/ng/mL; IC50 [8, 22]: 170 µM
